One test has as its target TXA2 Synthase. As to the kind of experiment: TXA2 synthase IC50 as listed in Table I (enzyme source not stated). The class given is biochemical. The method, then:
(§1) Determination of Inhibition of Thromboxane Synthase Activity Isolation of Human Platelet Microsomes
(§2) Assay for Thromboxane Synthase
(§3) To a 12×75 mm tube containing [1-^14 C] PGH2 (2 μg, 0.01 μCi or 0.05 μCi) and inhibitor (1 mM final assay concentration, in 10 μl of ethanol) in 225 μl of phosphate buffer (0.1M, pH 7.5), was added to an aliquot of guinea pig lung microsomes (25 μl, containing 400 μg protein) or an aliquot of human platelet microsomes (25 μl, containing .congruent.[…] protein). The solution was incubated in a 22° water bath for 2 min.; ether (1 ml) and citric acid (25 μMoles) were added, and the tube plunged into an acetone-dry ice bath. The ether extract was transferred to a 1.0 ml Reacti-vial, and the volume reduced under nitrogen to .congruent.50 μl.
(§4) The extract was applied to an I.T.L.C., type SG, glass fiber sheet (Gelman Instrument Co., Ann Arbor, Mich.) and developed in isooctane; methyl ethyl ketone: acetic acid (100:19:1 or 100:9:1) (19). The sheets were air dried and scanned using a Berthold LB 2760 Radiochromatographic Scanner. In certain cases, based on the radiochromatographic profile obtained, the sheets were cut, the appropriate regions placed in scintillation vials, 10 ml of LSC cocktail (Yorktown Research, S. Hackensack, NJ) added, and the relative cpm determined.

Test [1] has as its system isolated perfused rat pancreas. As to the kind of experiment: Insulin secretion by isolated perfused rat pancreas. Also on record: key: insulin AUC ratio: 1st glucose pulse / 2nd pulse with compound. As to conditions: 16.7 mM glucose, control 1.0 ± 0.04 (n = 5). The method, then:
Determination of Insulin-Secretory Activity in the Isolated Perfused Rat Pancreas
Pancreata were obtained from young adult female Charles River rats weighing from 200-300 g. The animals were anaesthesized with sodium pentobarbitol (45 mg/kg), injected intraperitoneally, and the pancreas with its intact vasculature was removed and connected to an extracorporeal perfusion apparatus.
The basic perfusion solution contained: 133 mM NaCl, 4.4 mM KCl, 2.5 mM MgSO4, 2.4 mM Ca gluconate, 1.5 mM KH2 PO4, 29.4 mM NaHCO3, 4% dextran and 0.2% bovine serum albumin and glucose as discussed below. The perfusion flow rate was kept constant at 4 ml/min. After a 15-20 min equilibration period, the experimental protocol was begun. The pancreatic effluent was collected in either one or four-minute fractions.
The perfusion was run in the following sequence:
30 min 16.7 mM glucose-internal control
30 min 16.7 mM glucose and test compound
5 min 20 mM arginine-to check pancreas viability
Test compounds were dissolved in 90% ethanol to a concentration of 25 mM and then diluted in the perfusion buffer to the desired concentration. The perfusion effluent was collected in one or four min fractions-the samples were checked immediately, aliquoted for submission to radioimmunoassay and stored at -20° C. until the time of assay. The radioimmunoassay of insulin was carried out by a back-titration method using a pure rat insulin standard.
To assess the inhibitory activity of the test compounds, an inhibition index was calculated. The inhibition index is derived by comparing the insulin secretion response from treated versus nontreated pancreas preparations. For each preparation, a ratio of insulin secretion was calculated from the area under the insulin secretion curve of the first pulse of 16.7 mM glucose divided by the area under the curve of the second pulse of 16.7 mM glucose containing compound.

For test [2], the target named is T1, thromboxane synthase (Guinea Pig Lung Microsomes) (Cavia porcellus, UniProt H0UT36).
T1 construct: The lungs were removed, freed of trachea and the majority of blood removed by rinsing the lungs with buffer; from tissue; host or cells: lungs of male guinea pigs (microsomes, 110,000 g pellet)
T1 sequence (H0UT36 entry or part of it): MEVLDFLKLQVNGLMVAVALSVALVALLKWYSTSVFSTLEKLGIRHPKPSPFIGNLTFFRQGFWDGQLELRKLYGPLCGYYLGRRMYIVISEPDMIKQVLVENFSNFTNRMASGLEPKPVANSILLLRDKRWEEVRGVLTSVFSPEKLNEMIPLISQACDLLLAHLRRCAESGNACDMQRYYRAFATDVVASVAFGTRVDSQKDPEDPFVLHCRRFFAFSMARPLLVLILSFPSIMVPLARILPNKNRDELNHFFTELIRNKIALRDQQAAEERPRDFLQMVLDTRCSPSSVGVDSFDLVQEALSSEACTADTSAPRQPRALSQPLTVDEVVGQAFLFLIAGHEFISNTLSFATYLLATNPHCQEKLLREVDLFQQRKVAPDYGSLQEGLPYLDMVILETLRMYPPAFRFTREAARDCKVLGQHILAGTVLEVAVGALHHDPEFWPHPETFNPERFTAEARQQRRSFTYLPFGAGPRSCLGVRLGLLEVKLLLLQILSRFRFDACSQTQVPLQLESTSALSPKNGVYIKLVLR
Put plainly: biochemical. Particulars: enzyme source G = Guinea Pig Lung Microsomes; read-out: IC50. The method, then: In said assay procedure, microsomes from guinea pig lung or human platelets are added to an endoperoxide intermediate in prostaglandin biosynthesis and the inhibitor in phosphate buffer solution followed by incubation, extraction and determination of the extent of thromboxane synthase inhibition by TLC with radiochromatographic profile analysis. […]
Isolation of Guinea Pig Lung Microsomes
Four male guinea pigs (.congruent.500 g each) were sacrificed by spinal dislocation. The lungs were removed, freed of trachea and the majority of blood removed by rinsing the lungs with buffer (0.1M phosphate pH 7.5) via the pulmonary artery. The lung tissue (18.3 g total wet wt.), was then minced, suspended in three volumes of buffer and homogenized using, initially, a Brinkmann polytron homogenizer and, finally, a glass-teflon tissue grinder. The homogenate was centrifuged at 12,000 g for 1 hr. and the resultant supernatant recentrifuged at 110,000 g for 1 hr. The 110,000 g pellet was taken up in 10 ml of buffer, divided into 5×2 ml aliquots and stored at -70° until use.
(§5) Low specific activity PGH2 (3.3 μCi/μmole) was obtained from Dr. W. E. M. Lands of the University of Michigan. PGH2 of higher specific activity (16.0 μCi/μmole) was purchased from Ran Biochemicals, Tel-Aviv, Israel.
(§6) The inhibitors tested were prepared as solutions (1-10 mg/ml) in 95% ethanol.
as §2, §3, §4

Test [3] addresses T2, thromboxane synthase (Human Platelet Microsomes) (Homo sapiens, UniProt P24557).
T2 construct: Platelets were obtained from 320 ml of whole blood and resuspended in 5.0 ml of Krebs-Hensleit buffer; from tissue; host or cells: human platelets (microsomes, 110,000 g pellet)
T2 sequence (P24557 1-533): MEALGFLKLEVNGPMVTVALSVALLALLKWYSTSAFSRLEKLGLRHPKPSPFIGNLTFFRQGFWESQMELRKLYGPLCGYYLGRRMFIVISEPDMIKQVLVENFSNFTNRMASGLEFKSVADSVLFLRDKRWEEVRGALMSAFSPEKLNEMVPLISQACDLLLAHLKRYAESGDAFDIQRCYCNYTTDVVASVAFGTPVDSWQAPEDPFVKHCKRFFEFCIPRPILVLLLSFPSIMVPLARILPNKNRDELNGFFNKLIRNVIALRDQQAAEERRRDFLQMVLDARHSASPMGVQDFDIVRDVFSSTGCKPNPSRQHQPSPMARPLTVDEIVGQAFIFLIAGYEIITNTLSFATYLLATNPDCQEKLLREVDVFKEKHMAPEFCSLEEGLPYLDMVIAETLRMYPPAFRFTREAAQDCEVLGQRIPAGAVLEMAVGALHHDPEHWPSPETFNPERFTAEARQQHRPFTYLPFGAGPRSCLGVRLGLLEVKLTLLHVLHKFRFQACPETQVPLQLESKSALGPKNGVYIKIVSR
As to the kind of experiment: Thromboxane synthase inhibition, human platelet microsomes. In kind it is biochemical. Particulars: enzyme source H = Human Platelet Microsomes; read-out: IC50. As to the method: In said assay procedure, microsomes from guinea pig lung or human platelets are added to an endoperoxide intermediate in prostaglandin biosynthesis and the inhibitor in phosphate buffer solution followed by incubation, extraction and determination of the extent of thromboxane synthase inhibition by TLC with radiochromatographic profile analysis.
as §1
Platelets were obtained from 320 ml of whole blood and resuspended in 5.0 ml of Krebs-Hensleit buffer (CA^+2 free). After three consecutive freeze-thawing cycles, homogenization and centrifugation at 12,000 g for 45 min., the 12,000 supernatant was recentrifuged at 110,000 g for 60 min. The resultant pellet was resuspended in phosphate buffer (0.5 ml, 0.1M, pH 7.5) and stored at -70° until use.
as §5, §6, §2, §3, §4

The test system of test [4] is thromboxane synthase from human platelets. Particulars: highest potency among the imidazole derivatives tested; read-out: I50; cited from earlier work.
A further test deals with obese Zucker rats. As to the kind of experiment: Antiobesity activity in vivo in obese Zucker rats. More on the design: species or system rat. Particulars: 16 to 18 days; for Body Weight Gain: treated minus control. As to the method: Determination of Antiobesity Activity
Thromboxane synthase inhibitors were evaluated for antiobesity activity in vivo. Body weight, food intake and circulating insulin levels were monitored during periods of drug treatment. Analysis of carcass composition was performed at study termination.
Animals, Diets and Drug Administration
Lean and obese male and female Zucker rats bred at Hoffmann-La Roche Inc. (Nutley, NJ) were kept in wire-bottomed individual cages in light (12 hr dark and light cycles beginning at 6 p.m. and 6 a.m., respectively) and temperature-controlled (22°) rooms. All rats were fed chow diet (Ralston Purina Co., St. Louis, MO) ad libitum until one to three weeks before the start of drug treatment, at which time they were trained to consume a high glucose low fat (1% corn oil) diet which is herein referred to as G-70:1% CO. Following the one to three-week training period on G-70:1% CO, the average daily food intake was calculated, and the rats were weighed and divided into groups of four to seven rats each.
The control animals continued to eat the G-70:1% CO diet ad libitum, and the experimental groups were given G-70:1% CO diet containing drug (also fed ad libitum). The amount of drug added to the diet of each experimental group was based on calculations of food consumed per kg body weight using data collected at the end of the training period. […] The period of drug treatment ranged from 16 to 18 days as noted in the legends to the tables and graph. Food intake and body weight were recorded either daily or twice a week throughout the duration of the study. The amount of drug administered was calculated from the food intake per kg body weight for each experimental group. Body weight data are reported as the difference between the body weight gains of control and drug-treated animals. Food intake and insulin data are reported as percent of control.
^a Average duration of treatment was 16 to 18 days.
^b Body weight gain was computed by taking the difference between the
weight gain of treated and control rats.

Test [5] relates to thromboxane synthetase (rabbit platelet microsomes). Particulars: result in words; cited from earlier work.

We go through nine molecules from US4731363A, “Thromboxane synthase inhibitors as insulin lowering agents and antiobesity agents” (priority 1986, dated 1988).

“And” between values parts separate entries of the source, which are not always exact repeats. Equal entries are not always repeated.

For `S=C(n1ccnc1)n1ccnc1` [1,1'-carbonothioylbis-1H--imidazole, 1,1'-carbonothioylbis-1H-imidazole], the IC50 is 15 µM against TXA2 Synthase and 10 to 100 µM in test [2]. In addition, the “Insulin Secretion Inhibition Index” value in test [1] (1000 μM) came to 5.

Turning to `c1ccc(C(c2ccccc2)(c2ccccc2)n2ccnc2)cc1` [1-(triphenylmethyl)-1H--imidazole, 1-(triphenylmethyl)-1H-imidazole], the IC50 (in test [3]; against TXA2 Synthase; in test [2]) was 10 to 100 µM in each case. Moreover, the “Insulin Secretion Inhibition Index” value in test [1] (10 μM) is on record as 2.

With `CC(C)c1ccccc1-n1ccnc1` [1-[2-(1-methylethyl)phenyl]-1H--imidazole], the IC50 was around 1 µM in test [3] and around 0.01 µM in test [4].

For `CC(C)Oc1ccc(-n2ccnc2)cc1` [1-[4-(1-methylethoxy)phenyl]-1H-imidazole], the IC50 in test [3] was around 10 µM. This molecule returned an IC50 against TXA2 Synthase of 10 µM. In test [1] (100 μM), the “Insulin Secretion Inhibition Index” value is given as 4. For the same molecule, in the test with obese Zucker rats (82 mg/kg in diet, P ≤ 0.05), the “Food Consumption” value is 80 ± 2 % of control and the “Body Weight Gain” value is reported as -18 g. In the test with obese Zucker rats (82 mg/kg in diet, not marked significant), the Insulin is given as 94 ± 21 % of control.

For `CCCCCCCCCn1ccnc1` [1-nonyl-1H--imidazole], in test [4], the IC50 is around 0.01 µM.

`c1c[nH]cn1` [1H--imidazole, reference compound]: the IC50 at TXA2 Synthase was 600 µM; in test [2], > 100 µM and < 1000 µM. Also, the “Insulin Secretion Inhibition Index” value stood at 2 in test [1] (100 μM) and 3 in test [1] (1000 μM).

For the molecule `c1ccc2c(Cn3ccnc3)c[nH]c2c1` [3-(1H--imidazol-1-ylmethyl)-1H--indole, 3-(1H-imidazol-1-ylmethyl)-1H-indole], the IC50 is around 1 µM in test [3] and 1 µM against TXA2 Synthase. The figures for the “Insulin Secretion Inhibition Index” value in test [1] (10 μM), in test [1] (50 μM) and in test [1] (100 μM) were 1, 13 and 32, respectively. Besides, the “Food Consumption” value in the test with obese Zucker rats (18 mg/kg in diet, P ≤ 0.05) is 81 ± 1 % of control; in the test on obese Zucker rats (55 mg/kg in diet, P ≤ 0.05) it was 63 ± 4 % of control. Further, the Insulin is 72 ± 9 % of control in the test on obese Zucker rats (18 mg/kg in diet, P ≤ 0.05) and 12 ± 2 % of control in the test on obese Zucker rats (55 mg/kg in diet, P ≤ 0.05). Moreover, the “Body Weight Gain” value with obese Zucker rats (18 mg/kg in diet, P ≤ 0.05) is recorded as -24 g; in the test on obese Zucker rats (55 mg/kg in diet, P ≤ 0.05), -68 g.

For the molecule `CC(C)c1[nH]c2ccccc2c1C(=O)c1cccnc1` [[2-(1-methylethyl)-1H-indol-3-yl)]-3-pyridinyl-methanone], the results for the IC50 (in test [3]; on TXA2 Synthase) were around 1 µM and 1 µM, respectively. For the same molecule, in test [1] (100 μM), the “Insulin Secretion Inhibition Index” value stood at 5. The “Food Consumption” value in the test on obese Zucker rats (94 mg/kg in diet, not marked significant) is 89 ± 4 % of control. In the test on obese Zucker rats (94 mg/kg in diet, P ≤ 0.05), the “Body Weight Gain” value is listed as -17 g.

For the molecule `c1ccncc1` [pyridine], the “enzymatic formation of TXB2 from PGH2” value in test [5] is “inhibition”.
